The values below come from ChEMBL document CHEMBL2407085, “Structure-Activity Relationships and in Vivo Evaluation of Quinoxaline Derivatives for PET Imaging of β-Amyloid Plaques” (ACS Med Chem Lett, 2013).

The subject of data set [1] is Brain. Briefly: Ratio of drug uptake in ddY mouse brain at 23.4 to 48.2 kBq, iv measured at 2 mins to drug uptake in ddY mouse brain at 23.4 to 48.2 kBq, iv measured at 60 mins. The note with it: in vivo.
For data set [2], the system named is Brain. Briefly: Biodistribution in Tg2576 ddY mouse brain at 23.4 to 48.2 kBq, iv measured at 2 to 10 mins by autoradiography. In kind it is ADME, organism-based. The note with it: in vivo.
Data set [3] in a line: Drug uptake in Alzheimer's disease patient white matter at 370 kBq/100 uL after 1 hr by thioflavin-S based autoradiography. Format: ADME, tissue-based. The note with it: human, in vitro.
The target of data set [4] is T1, Amyloid-beta precursor protein (Homo sapiens, UniProt P05067). As to the kind of experiment: Binding affinity to beta-amyloid plaque in Alzheimer's disease patient brain cortex after 1 hr by thioflavin-S based autoradiography.
Data set [5] relates to Brain. As to the kind of experiment: Biodistribution in Tg2576 ddY mouse brain at 23.4 to 48.2 kBq, iv measured at 60 mins by autoradiography. In kind it is ADME, organism-based. The following applies: in vivo, 1 h.
Data set [6] relates to Mus musculus. As to the kind of experiment: Biodistribution in Tg2576 ddY mouse anterior commissure at 5.5 MBq, iv by autoradiography. The note with it: in vivo. Format: ADME, organism-based.
Data set [7] concerns Mus musculus. As to the kind of experiment: Biodistribution in Tg2576 ddY mouse olfactory tract at 5.5 MBq, iv by autoradiography. In kind it is ADME, organism-based. The note with it: in vivo.
The test system of data set [8] is Mus musculus. As to the kind of experiment: Biodistribution in Tg2576 ddY mouse external capsule at 5.5 MBq, iv by autoradiography. In kind it is ADME, organism-based. The following applies: in vivo.
The subject of data set [9] is Mus musculus. As to the kind of experiment: Biodistribution in Tg2576 ddY mouse corpus callosum at 5.5 MBq, iv by autoradiography. The following applies: in vivo. In kind it is ADME, organism-based.
The target of data set [10] is T1, Amyloid-beta precursor protein. Briefly: Displacement of [125I]IMPY from amyloid beta (1 to 42) (unknown origin) after 3 hrs by gamma counting. In general terms: Displacement assays read how much labelled ligand stays bound in the presence of the test substance.
Data set [11] has the same target. As to the kind of experiment: Ratio of AV-45 Ki to compound Ki for amyloid beta (1 to 42) (unknown origin) […] by gamma counting.
In data set [12] the test system is Mus musculus. As to the kind of experiment: Ex vivo binding affinity to beta-amyloid plaque in Tg2576 mouse brain at 5.5 MBq, iv measured at 1 hr by Thioflavin-S fluorescence microscopy. Format: functional, organism-based. The following applies: 5.5 M, tested as the 18F-labelled form.
In data set [13] the test system is Mus musculus. Briefly: Ex vivo binding affinity to beta-amyloid plaque in wild-type mouse brain at 5.5 MBq, iv measured at 1 hr by Thioflavin-S fluorescence microscopy. In kind it is functional, organism-based. The note with it: 5.5 M, tested as the 18F-labelled form.

Calls of active or inactive are those of the source. The rule behind the calls is not given here. Some results are limits rather than exact numbers.

A word on the Ki: it is the dissociation constant of the complex between target and ligand, obtained from inhibition or displacement. A higher Ki goes with lower affinity.

T1 sequence (P05067 whole entry): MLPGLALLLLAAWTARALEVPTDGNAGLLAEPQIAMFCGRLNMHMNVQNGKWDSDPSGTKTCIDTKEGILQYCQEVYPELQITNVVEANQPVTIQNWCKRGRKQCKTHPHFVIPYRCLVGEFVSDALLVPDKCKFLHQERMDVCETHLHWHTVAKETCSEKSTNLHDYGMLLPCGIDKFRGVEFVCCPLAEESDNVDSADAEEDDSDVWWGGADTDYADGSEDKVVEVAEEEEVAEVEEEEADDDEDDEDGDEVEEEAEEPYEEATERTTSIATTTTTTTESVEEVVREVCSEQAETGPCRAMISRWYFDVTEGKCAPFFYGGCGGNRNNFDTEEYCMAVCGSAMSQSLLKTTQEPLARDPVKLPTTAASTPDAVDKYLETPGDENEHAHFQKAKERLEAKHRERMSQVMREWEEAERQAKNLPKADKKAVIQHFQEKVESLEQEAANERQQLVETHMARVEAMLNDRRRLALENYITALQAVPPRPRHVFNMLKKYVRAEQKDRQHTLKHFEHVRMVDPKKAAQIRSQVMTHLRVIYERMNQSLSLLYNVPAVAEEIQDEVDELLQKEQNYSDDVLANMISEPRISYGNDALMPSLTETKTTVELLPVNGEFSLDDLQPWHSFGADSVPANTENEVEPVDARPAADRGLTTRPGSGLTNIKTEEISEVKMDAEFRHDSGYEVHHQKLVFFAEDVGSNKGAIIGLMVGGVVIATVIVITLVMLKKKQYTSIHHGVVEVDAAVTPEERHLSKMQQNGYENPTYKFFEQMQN

Consider `CNc1ccc(/C=C/c2ccc(OCCOCCOCC[18F])nc2)cc1` [FLORBETAPIR F 18], for which, in the data set with Brain [1], the Ratio came to 3.8. Besides, the Drug uptake result in the data set on Brain [2] is given as “Active”.

Turning to `CNc1ccc(-c2cnc3cc(OCC[18F])ccc3n2)cc1`, the Drug uptake result was “Not Active” in data set [3], 4.69 % ID/g with Brain [2] and 1.48 % ID/g in the data set on Brain [5]. The Ratio with Brain [1] is listed as 2.36. Further, in data set [4], affinity was put at a Ki of 15.7 nM.

Turning to `CN(C)c1ccc(-c2cnc3ccc(OCC[18F])cc3n2)cc1`, in the data set with Brain [1], the Ratio was found to be 3.91. In [4], the Ki came to 111 nM. For the same compound, the Drug uptake in the data set with Brain [2] was found to be 4.69 % ID/g; in the data set with Brain [5], 1.48 % ID/g.

Consider `Nc1ccc(-c2cnc3ccc(OCC[18F])cc3n2)cc1`, for which the Drug uptake result in data set [3] was “Active”; with Brain [2], 4.69 % ID/g; with Brain [5], 1.48 % ID/g. Besides, in the data set on Brain [1], the Ratio is 2.36. In addition, the inhibition constant (Ki) in [4] was greater than 242 nM.

`CN(C)c1ccc(-c2cnc3cc(OCC[18F])ccc3n2)cc1`: the Drug uptake result is recorded as “Active” with Mus musculus [6]; “Active” with Mus musculus [7]; “Not Active” in data set [3]; “Active” in the data set on Mus musculus [8]; 4.69 % ID/g with Brain [2]; 1.48 % ID/g in the data set with Brain [5]. Further, in the data set with Mus musculus [9], the Drug uptake result is recorded as “Active”. The Ratio in the data set on Brain [1] came to 2.36. In data set [4], this compound displayed a Ki of 0.895 nM.

Turning to `Nc1ccc(-c2cnc3cc(OCC[18F])ccc3n2)cc1`, the Drug uptake entry in data set [3] was “Active”; in the data set on Brain [2], 4.69 % ID/g; with Brain [5], 1.48 % ID/g. Besides, the Ratio in the data set on Brain [1] is given as 2.36. The Ki in data set [4] was greater than 242 nM.

For `CN(C)c1ccc(-c2cnc3cc(OCCF)ccc3n2)cc1`, in [10], the affinity corresponds to a Ki of 0.895 nM. Also, in data set [11], the Ratio Ki came to 10. Moreover, the result in the data set with Mus musculus [12] and in the data set with Mus musculus [13] was Active.

With `CNc1ccc(-c2cnc3ccc(OCC[18F])cc3n2)cc1`, the Drug uptake entry in [3] is reported as “Active”; in the data set with Brain [2], 4.69 % ID/g; in the data set on Brain [5], 1.48 % ID/g. Also, the Ratio in the data set on Brain [1] is listed as 2.36. In data set [4], this compound came in with a Ki greater than 242 nM.

In turn, `CNc1ccc(/C=C/c2ccc(OCCOCCOCCF)nc2)cc1` [FLORBETAPIR] had an inhibition constant Ki in data set [10] of 12.8 nM.
